Measured values published in patent publication US20260027067A1, “TRIENTINE LIQUID DOSAGE FORMS” (BIOPHORE INDIA PHARMACEUTICALS PVT. LTD., priority 2022, published 2026).
Structures can show the parent of a compound that is named as a salt.

Columns and labels:
[1] = crystalline powder; cited from earlier work
[2] = Selection of sweeteners and flavoring agents (formulation trials); details: used as sweetener in trientine tetrahydrochloride oral solution

SMILES	hygroscopicity [1]	compatibility of the sweetener in the formulation [2]
NCCNCCNCCN [Trientine dihydrochloride salt, Trientine dihydrochloride]	hygroscopic	
Cl.Cl.Cl.Cl.NCCNCCNCCN [Trientine tetrahydrochloride salt, Trientine tetrahydrochloride]	not hygroscopic	
O=C1NS(=O)(=O)c2ccccc21.[Na] [saccharin sodium]		incompatibility in the form of milky white curdling
